Measured values reported in US7019000B1, “Method of treating a disease condition caused or exacerbated by an HPV” (Institute of Molecular & Cell Biology, priority 1998, dated 2006).

Experiments:
[1] = biological target: T1, HPV-16-E6 (recombinant GST-E6 protein) (Human papillomavirus type 16, UniProt P03126); test: biochemical; assay type: biochemical
T1 construct: The full length HPV16 E6 gene was amplified via polymerase chain reaction and cloned in the vector pGeX4T2; made in house; host or cells: E. coli strain AB1899
T1 sequence (P03126 whole entry): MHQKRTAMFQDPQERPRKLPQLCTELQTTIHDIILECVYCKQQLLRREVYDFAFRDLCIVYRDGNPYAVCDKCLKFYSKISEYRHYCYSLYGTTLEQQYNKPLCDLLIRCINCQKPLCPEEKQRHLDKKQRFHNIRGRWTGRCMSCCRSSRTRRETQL
Excerpt: Where the chelated metal is zinc, zinc release can be measured as an increase in the fluorescence of the zinc-selective fluorophore TSQ (N-(6-methoxy-8-quinolyl)-p-toluenesulfonamide) (18) in the presence of the protein and the active compound (TSQ assay).
In such an assay, the increase in fluorescence measured can be described as a percentage of the increase in fluorescence observed for a positive control compound which provides 100% zinc release. A suitable positive control compound is H2O2. Preferred compounds which may be useful in the present invention are those which release at least 30% of the chelated zinc as measured by the TSQ assay. Particularly preferred compounds for use in the present invention are those which release at least 40% of the chelated zinc, more preferably at least 50%.
In earlier studies, reduced glutathione (GSH) was required to elute recombinant glutathione sulfhydryl transferase E6 (recombinant (GST-E6)) protein during the purification process. However, the reducing activity of the GSH sulfhydryl groups protected GST-E6 protein from the chemical attack by agents, such as the disulphide based organic compounds of Formula (I) and (II). […] Individual assays were done in the presence of 9 μg GST-E6 protein, corresponding to a concentration of 1 μM GST-E6 protein and 2 μM bound zinc, assuming the presence of two Zn ions per protein.
Release of zinc from HPV-16-E6 was monitored by the change in fluorescence of the zinc-selective fluorophore TSQ (N-6-methoxy-8-quinolyl)-p-toluenesulfonamide), (Molecular Probes, Eugene, Oreg.) by modification of published procedures (25, 26, 27). In a total reaction volume of 200 μl, 9 μg (1 μM) recombinant GST-E6 protein (corresponding to a concentration of 1 μM), bound to glutathione-sepharose beads, were incubated with 10 μM of each compound or 0.6% (170 mM) H2O2 in TSQ-assay buffer (10 mM sodium phosphate buffer pH7.0, 10% glycerol) for 2 hours at room temperature (200 μl total volume in 96-well plates). Immediately after addition of 100 μM TSQ, the increase in fluorescence was measured on a SLT Fluostar (355 nm excitation filter and 460 nm emission filter, Tecan, Salzburg).
Values given are % values of Zinc release. The relative fluorescence units (RFU) were normalized to the amount of zinc released by H2O2 (regarded as 100%). The concentration of compound used was 10 μM for C27–C35, 13 μM for C37–C83, H2O2 was used at 0.3% for C27–C35 and 0.2% for C37–C83.

[2] = biological target: T2, binding of E6 with E6AP and E6BP (Human papillomavirus type 16, UniProt P03126); parameters: species or system HPV-16
T2 construct: The full length HPV16 E6 gene was amplified via polymerase chain reaction and cloned in the vector pGeX4T2; made in house; host or cells: E. coli strain AB1899
T2 sequence (P03126 whole entry): as above
Excerpt: BIACORE allows real time analysis of bimolecular interactions without the need for isotopic or enzymatic labelling. BIACORE technology is based on the optical surface plasmon resonance (SPR), a technique that allows for detecting small changes in the refractive index on the surface of a thin gold film coated with a dextran matrix. Typically, one of the binding partners (termed the ligand) is covalently linked to the dextran matrix, while the other partner (termed the analyte) is introduced in a flow passing over the surface. The change in refractive index resulting from the interaction of the molecules is expressed in resonance units (RU): a SPR response of 1000 RU corresponds to a change of the surface concentration of the analyte of 1 ng protein/mm^2. GST-E6AP and GST-E6BP were used as ligands and GSTE6 was used as the analyte. […] Further controls included using the dextran matrix alone or GST as the ligand.
Binding of GST-E6 to GST-E6BP, GST-E6AP and GST was monitored by surface plasmon resonance (SPR) on a BIACORE 2000 machine (Biacore AB, Uppsala, Sweden). […] Typically 6000–10000 RU of GST, E6BP and E6AP were immobilized on three difference flowcells. Aliquots of purified HPV-16 GST-E6 (7 μM in 10 mM GSH, 50 mM Tris/PBS buffer, pH 8.2) were incubated with either 400 μM compound, or 5 mM EDTA, or 0.6% (170 mM) H2O2 for 2 hrs at room temperature. Then 10 μl of sample was injected at 1 μl/min over the three immobilized ligands using the sequential flow mode. The interactions between GST-E6 and ligands were monitored by the change of resonance signal in arbitrary units (RU).

[3] = test system: SiHa, HeLa, 444 and HaCat cells; test: Microscopic observation of cell viability (FIG. 4); assay type: cell-based, human; details: E6-dependent cells (SiHa and HeLa) vs E6-independent cells (444 and HaCat)
Method: FIG. 4 photographically depicts viability of SiHa, HeLa, 444 and HaCat cells when treated with C16 compound.
Cell viability and the cytotoxic specificity for a number of other compounds of Formula (I) and (II) were also determined.

[4] = test system: PARP cleavage in HeLa cells; test: Western blot detection of PARP cleavage, HeLa; assay type: cell-based, human; details: 100 μM, one day
Method: 10^6 cells were plated on 10 cm petri-dishes with 10 ml medium and after attachment overnight, treated with 100 μM C16 or 0.5% DMSO for one day. At the time of cell harvest most C16-treated cells were still attached to the plate. Cells were harvested using a rubber policeman and lysed in 10 mM Hepes buffer, pH 7.2, 150 mM NaCl, 0.2% Nonidet-P40 (NP40) and 1 mM PMSF, followed by centrifugation. 20 μg of protein was loaded onto a 12% SDS-polyacrylamide gel, transferred to a nitrocellulose membrane and the membrane blocked with 5% nonfat dry milk in 20 mM Tris-Cl, pH 7.6, 150 mM NaCl, 0.05% Tween-20 overnight at 4° C. The membrane was then probed with primary antibodies against p53 (Santa Cruz Biotechnology, Santa Cruz, Calif.), β-actin (Sigma, St. Louis, Mo.) or PARP (C210, Centre de Research du Chul, Quebec, Canada) and followed by incubation with horseradish peroxidase-conjugated secondary antibody (Pierce, Rockford, Ill.). Finally, the blot was treated with an enhanced chemiluminescent detection substrate (SuperSignal, Pierce) and autoradiographed.
Increases in P53 expression are known to be associated with programmed cell death (apoptosis) (29), therefore PARP cleavage, a hallmark of apoptosis was examined in C16 treated cells.

In the case of `C1CN(SSN2CCOCC2)CCO1` [Compound C16], the “zinc release in original TSQ assays” value ([1]; GSH present at 5–10 mM) is reported as “capable of releasing zinc”, the activation at 10 µM ([1]; read-out: TSQ % (% values of Zinc release)) is reported as 63.2% and the “inhibitory activity for E6 binding to both E6BP and E6AP (BIACORE)” value [2] is reported as “inhibitory activity for E6 binding to both E6BP and E6AP”. For the same compound, the “BIACORE (E6BP/E6AP)” value ([2]; 400 μM compound, 2 hrs at room temperature, GST-E6 7 μM in 10 mM GSH) was “+ (compound interferes in binding of E6 with E6AP and E6BP, binding is less than 50% of the corresponding E6-DMSO value.)”, the “microscopic observation of cells” value [3] was “differential effect” and the PARP cleavage [4] was “PARP cleavage was observed”.
